Assay results as given in the supplement of paper PMC5908809.

Experiments:
[1] = tested on: normal NK cells expanded with K562-aAPC; assay: percent inhibition of viability; higher = more inhibition; settings: 72 h, IL-2 2.5 ng/mL
Procedure: (§1)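 Drug sensitivity and resistance testing on K562-aAPC-expanded normal NK cells: 5 concentrations (10-fold steps over a 10,000-fold range), 72 h at 37 °C, viability by CellTiter-Glo normalised to DMSO and benzethonium chloride controls; DSS from the fitted curve.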

DERL-7 (IL-2 2.5 ng/mL) [2] = assay: as above; settings: 72 h
IMC-1 (IL-2 20 ng/mL) [3] = assay: as above; settings: 72 h
KAI3 (IL-2 2.5 ng/mL) [4] = assay: as above; settings: 72 h
KHYG-1 (IL-2 2.5 ng/mL) [5] = assay: as above; settings: 72 h
NK-92 (IL-2 2.5 ng/mL) [6] = assay: as above; settings: 72 h
NK-YS (IL-2 2.5 ng/mL) [7] = assay: as above; settings: 72 h
NKL (IL-2 2.5 ng/mL) [8] = assay: as above; settings: 72 h
SNK-6 (IL-2 2.5 ng/mL) [9] = assay: as above; settings: 72 h
YT (IL-2 2.5 ng/mL) [10] = assay: as above; settings: 72 h
[11] = tested on: normal primary NK cells, pool 1 (3 donors) (IL-2 2.5 ng/mL); assay: as above; settings: 72 h
[12] = tested on: normal primary NK cells, pool 1 (3 donors), resting (IL-2 0 ng/mL); assay: as above; settings: 72 h
[13] = tested on: normal primary NK cells, pool 2 (3 donors) (IL-2 2.5 ng/mL); assay: as above; settings: 72 h
[14] = tested on: normal primary NK cells, pool 3 (3 donors) (IL-2 2.5 ng/mL); assay: as above; settings: 72 h
[15] = tested on: normal NK cells expanded with K562-aAPC; assay: drug sensitivity score (DSS) (DSS units); higher = more sensitive; extreme values may be limits of the assay; settings: 72 h; IL-2 2.5 ng/mL
Procedure: as §1

DERL-7 (IL-2 2.5 ng/mL) [16] = assay: as above; settings: 72 h
IMC-1 (IL-2 20 ng/mL) [17] = assay: as above; settings: 72 h
KAI3 (IL-2 2.5 ng/mL) [18] = assay: as above; settings: 72 h
KHYG-1 (IL-2 2.5 ng/mL) [19] = assay: as above; settings: 72 h
NK-92 (IL-2 2.5 ng/mL) [20] = assay: as above; settings: 72 h
NK-YS (IL-2 2.5 ng/mL) [21] = assay: as above; settings: 72 h
NKL (IL-2 2.5 ng/mL) [22] = assay: as above; settings: 72 h
SNK-6 (IL-2 2.5 ng/mL) [23] = assay: as above; settings: 72 h
YT (IL-2 2.5 ng/mL) [24] = assay: as above; settings: 72 h
[25] = tested on: normal primary NK cells, pool 1 (3 donors) (IL-2 2.5 ng/mL); assay: as above; settings: 72 h
[26] = tested on: normal primary NK cells, pool 1 (3 donors), resting (IL-2 0 ng/mL); assay: as above; settings: 72 h
[27] = tested on: normal primary NK cells, pool 2 (3 donors) (IL-2 2.5 ng/mL); assay: as above; settings: 72 h
[28] = tested on: normal primary NK cells, pool 3 (3 donors) (IL-2 2.5 ng/mL); assay: as above; settings: 72 h

COc1cc2/c(=N/c3ccc(Br)cc3F)nc[nH]c2cc1OCC1CCN(C)CC1 [Vandetanib] (max concentration tested 1000 nM)
percent inhibition of viability [%]
Settings	0.1 nM	1 nM	10 nM	100 nM	1000 nM
DERL-7 (IL-2 2.5 ng/mL) [2]	-0.64	-4.35	-15.9	-3.72	3.05
IMC-1 (IL-2 20 ng/mL) [3]	-1	-1.11	2.06	4.13	13.1
KAI3 (IL-2 2.5 ng/mL) [4]	0.12	-3.68	-0.86	-6.05	18.6
KHYG-1 (IL-2 2.5 ng/mL) [5]	-1.45	0.56	5.16	2.56	12.2
NK-92 (IL-2 2.5 ng/mL) [6]	-4.34	-9.89	-2.18	-8.76	7.58
NK-YS (IL-2 2.5 ng/mL) [7]	-3.92	-3.47	0.22	0.66	11.3
NKL (IL-2 2.5 ng/mL) [8]	-13.3	-15.3	-10	2.48	9
SNK-6 (IL-2 2.5 ng/mL) [9]	12.7	14.6	14.3	33.2	24.4
YT (IL-2 2.5 ng/mL) [10]	2.5	1.99	6.02	-0.29	12.9
[1]	-8.6	1.05	-3.45	6.91	29.5
[11]	-5.01	-0.24	-7.43	-15.2	2.01
[12]	7.75	-11.8	-1.4	-19.4	11.2
[13]	-2.11	0.59	-1.27	-7.23	12.3
[14]	-11.4	-7.39	-2.76	-1.3	-0.41

Settings	drug sensitivity score
DERL-7 (IL-2 2.5 ng/mL) [16]	0
IMC-1 (IL-2 20 ng/mL) [17]	0.22
KAI3 (IL-2 2.5 ng/mL) [18]	0.3
KHYG-1 (IL-2 2.5 ng/mL) [19]	0
NK-92 (IL-2 2.5 ng/mL) [20]	0
NK-YS (IL-2 2.5 ng/mL) [21]	0.03
NKL (IL-2 2.5 ng/mL) [22]	0
SNK-6 (IL-2 2.5 ng/mL) [23]	7.25
YT (IL-2 2.5 ng/mL) [24]	0.08
[15]	2.32
[25]	0
[26]	0
[27]	0.01
[28]	0

O=C(c1ccc(C(=O)N2CCC(N3CCCC3)CC2)c(Nc2ccccc2)c1)N1CCC(N2CCCC2)CC1 [UNC1215] (max concentration tested 30000 nM)
percent inhibition of viability [%]
Settings	3 nM	30 nM	300 nM	3000 nM	30000 nM
DERL-7 (IL-2 2.5 ng/mL) [2]	-1.53	0.01	3.61	7.89	3.14
IMC-1 (IL-2 20 ng/mL) [3]	-3.72	-5.44	3.3	4.34	14.3
KAI3 (IL-2 2.5 ng/mL) [4]	1.7	4.58	5.63	3.2	16.4
KHYG-1 (IL-2 2.5 ng/mL) [5]	-1.52	-1.25	-0.64	3.44	11.4
NK-92 (IL-2 2.5 ng/mL) [6]	-15.1	-6.53	5.43	7.05	13.6
NK-YS (IL-2 2.5 ng/mL) [7]	-2.93	-6.82	1.29	4.26	12.9
NKL (IL-2 2.5 ng/mL) [8]	-7.8	-11.1	-0.61	-5.87	10.9
SNK-6 (IL-2 2.5 ng/mL) [9]	-4.87	-19.4	0.88	-4.07	-10.5
YT (IL-2 2.5 ng/mL) [10]	-2.24	-2.54	-0.78	1.55	4.57
[1]	3.82	0.21	4.98	5.27	6.03
[11]	-4.87	7.23	-8	1.14	-2.52
[12]	-4.97	4.4	-12.3	-0.15	-14.2
[13]	-8.79	-4.27	-3.06	7.44	11.8
[14]	-6.54	-6.05	-0.93	8.8	12.9

Settings	drug sensitivity score
DERL-7 (IL-2 2.5 ng/mL) [16]	0
IMC-1 (IL-2 20 ng/mL) [17]	0.31
KAI3 (IL-2 2.5 ng/mL) [18]	0.59
KHYG-1 (IL-2 2.5 ng/mL) [19]	0.12
NK-92 (IL-2 2.5 ng/mL) [20]	0.29
NK-YS (IL-2 2.5 ng/mL) [21]	0.25
NKL (IL-2 2.5 ng/mL) [22]	0
SNK-6 (IL-2 2.5 ng/mL) [23]	0
YT (IL-2 2.5 ng/mL) [24]	0
[15]	0
[25]	0
[26]	0
[27]	0.28
[28]	0.52

CCC(C)n1ncn(-c2ccc(N3CCN(c4ccc(OCC5COC(Cn6cncn6)(c6ccc(Cl)cc6Cl)O5)cc4)CC3)cc2)c1=O (configuration not stated) [Itraconazole] (max concentration tested 5000 nM)
percent inhibition of viability [%]
Settings	0.5 nM	5 nM	50 nM	500 nM	5000 nM
DERL-7 (IL-2 2.5 ng/mL) [2]	7.65	4.19	-0.11	8.64	83.6
IMC-1 (IL-2 20 ng/mL) [3]	-1.82	-3.66	-2.37	9.1	29.4
KAI3 (IL-2 2.5 ng/mL) [4]	6.2	-4.32	-3.2	12.8	91.9
KHYG-1 (IL-2 2.5 ng/mL) [5]	-2.72	3.74	1.39	6.98	98.1
NK-92 (IL-2 2.5 ng/mL) [6]	-7.29	-11.1	-8.89	38.2	91.5
NK-YS (IL-2 2.5 ng/mL) [7]	3.15	-1.22	-1.67	8.46	68.9
NKL (IL-2 2.5 ng/mL) [8]	6.31	-2.93	-3.73	-6.13	84.8
SNK-6 (IL-2 2.5 ng/mL) [9]	-8.18	3.54	19.4	39.2	93.4
YT (IL-2 2.5 ng/mL) [10]	-3.86	-5.55	-5.66	0.63	45.8
[1]	-0.18	-0.93	0.65	2.54	33
[11]	-10.8	-2.66	-5.12	4.85	30.5
[12]	-22.8	-11.8	-19.2	-4.28	28.1
[13]	0.8	-6.34	8.01	14.5	25.8
[14]	-9.47	-2.98	-1.54	12.1	22.5

Settings	drug sensitivity score
DERL-7 (IL-2 2.5 ng/mL) [16]	6.05
IMC-1 (IL-2 20 ng/mL) [17]	2.54
KAI3 (IL-2 2.5 ng/mL) [18]	7.24
KHYG-1 (IL-2 2.5 ng/mL) [19]	6.51
NK-92 (IL-2 2.5 ng/mL) [20]	10.1
NK-YS (IL-2 2.5 ng/mL) [21]	5.2
NKL (IL-2 2.5 ng/mL) [22]	4.25
SNK-6 (IL-2 2.5 ng/mL) [23]	10.3
YT (IL-2 2.5 ng/mL) [24]	2.44
[15]	1.9
[25]	2.13
[26]	0.93
[27]	2.45
[28]	2.08
